Results: patent publication EP4603105A1, “PHARMACEUTICAL COMPOSITION CONTAINING CYCLIC COMPOUND HAVING SELECTIVE KRAS INHIBITORY EFFECT AGAINST HRAS AND NRAS” (CHUGAI SEIYAKU KABUSHIKI KAISHA, priority 2022, dated 2024)
pIC50, pKd: −log10 of the molar value. Read-outs that look alike come from different tables or passages of the source.

Experiments:
[1] = tested on: human lung cancer strain NCI-H441; test: NCI-H441 cell proliferation inhibitory activity (CellTiter-Glo, 4 days); assay type: cell-based; conditions: read-out: NCl-H441 IC50
Method in brief: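 Readout: […] after the ATP-based reagent. Compound: serial dilutions in dimethyl sulfoxide.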

HRAS wild-type protein = HRAS wild-type protein (Homo sapiens, UniProt P01112); test: Binding to HRAS by surface plasmon resonance (SPR), KD and KD ratio to KRAS
Method in brief: (§1)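 Affinity is measured by surface plasmon resonance at 30°C against captured, GDP-loaded RAS carrying a biotinylated Avi tag. Compounds are titrated by single-cycle kinetics, and KD comes from a 1:1 fit.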

[2] = molecular target: GDP-bound KRAS wild-type protein (Homo sapiens, UniProt P01116); test: Binding to KRAS by surface plasmon resonance (SPR), dissociation constant KD
Method in brief: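 SPR, 30°C: Avi-biotin RAS·GDP captured via Biotin CAPture (~100–300 RU); running buffer HBS pH 7.4, 1 mM DTT, 10 mM MgCl2, 0.01% Tween 20, 10 µM GDP, 4% DMSO. Single-cycle kinetics, 100 µL/min, 75 s injections; 1:1 model → KD.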

[3] = molecular target: GDP-bound NRAS wild-type protein (Homo sapiens, UniProt P01111); test: Binding to NRAS by surface plasmon resonance (SPR), KD and KD ratio to KRAS
Method in brief: as §1

[4] = ratio of KD for HRAS wild-type protein to KD for KRAS
[5] = ratio of KD for GDP-bound NRAS wild-type protein to KD for KRAS
[6] = 50% proliferation inhibitory concentration, four days
[7] = ratio of KD with respect to HRAS wild-type protein to KD with respect to KRAS
[8] = Single Cycle Kinetics, 1:1 binding model
[9] = ratio of KD with respect to GDP-bound NRAS wild-type protein to KD with respect to KRAS

HRAS wild-type protein, sequence (P01112 whole entry): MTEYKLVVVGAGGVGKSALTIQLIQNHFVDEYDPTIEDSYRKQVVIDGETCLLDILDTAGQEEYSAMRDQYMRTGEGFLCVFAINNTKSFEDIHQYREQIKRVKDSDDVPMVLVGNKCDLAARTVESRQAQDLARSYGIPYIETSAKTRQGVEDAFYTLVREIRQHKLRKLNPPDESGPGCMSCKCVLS
GDP-bound NRAS wild-type protein, sequence (P01111 whole entry): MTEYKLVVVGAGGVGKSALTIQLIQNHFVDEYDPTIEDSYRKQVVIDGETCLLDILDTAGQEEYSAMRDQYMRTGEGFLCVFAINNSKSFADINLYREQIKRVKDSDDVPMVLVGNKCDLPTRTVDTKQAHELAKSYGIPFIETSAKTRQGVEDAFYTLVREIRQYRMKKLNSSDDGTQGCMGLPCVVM
GDP-bound KRAS wild-type protein, sequence (P01116 1-188 isoform P01116-2): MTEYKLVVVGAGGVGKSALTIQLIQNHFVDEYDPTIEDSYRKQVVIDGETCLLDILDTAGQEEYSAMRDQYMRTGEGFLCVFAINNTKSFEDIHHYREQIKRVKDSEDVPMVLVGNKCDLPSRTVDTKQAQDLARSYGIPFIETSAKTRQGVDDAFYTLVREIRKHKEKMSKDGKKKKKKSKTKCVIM

| pIC50 ([1]; NCI-H441 cells, 4 days) | pKd ([2]; Single Cycle Kinetics) | pIC50 [1, 6] | pKd [2, 8] | pKd ([2]; 1:1 binding model) | SMILES | HRAS /KRAS (HRAS wild-type protein; [4]) | NRAS /KRAS [3, 5] | HRAS /KRAS (HRAS wild-type protein; [7]) | NRAS /KRAS [3, 9] |
| --- | --- | --- | --- | --- | --- | --- | --- | --- | --- |
| 8.14 | 9.42 |  |  |  | C#CC[C@H]1C(=O)N[C@@H]([C@@H](C)CC)C(=O)N2CCC[C@H]2C(=O)N(C)[C@H]2C/C=C\CCN(C2=O)[C@@H](Cc2ccc(C)cc2)C(=O)N(C)CC(=O)N[C@@H](CCc2ccc(C(F)(F)F)c(OC)c2)C(=O)N2C[C@H](OCC)C[C@H]2C(=O)OC2(CCC2)C(=O)N(C)[C@@H](C2CCCC2)C(=O)N(C)[C@H](C(=O)N(C)C)CC(=O)N1C [PP3389] | B (a compound having 3 or more and less than 10 is denoted as B) | A (a compound having 10 or more and less than 20 is denoted as A) |  |  |
|  |  | 7.09 | 9.52 |  | CC[C@H](C)[C@@H]1NC(=O)[C@H](CC2CC2)N(C)C(=O)C[C@@H](C(=O)N(C)C)N(C)C(=O)[C@H](C2CCCC2)N(C)C(=O)C2(CCC2)NC(=O)[C@H](CCC(F)F)N(C)C(=O)[C@H](CCc2cc(F)c(C(F)(F)F)c(F)c2)NC(=O)CN(C)C(=O)[C@H](Cc2ccc(C(F)(F)F)cc2)N2CC/C=C\C[C@@H](C2=O)N(C)C(=O)CN(C)C1=O [PP1402] |  |  | A (a compound having 10 or more and less than 20 is denoted as A) | A (a compound having 10 or more and less than 20 is denoted as A) |
|  |  | 6.53 | 9.37 |  | CC[C@H](C)[C@@H]1NC(=O)[C@H](CC)N(C)C(=O)C[C@@H](C(=O)N(C)C)N(C)C(=O)[C@H](C2CCCC2)N(C)C(=O)C2(CCC2)NC(=O)[C@@H]2CCN2C(=O)[C@H](CCc2cc(F)c(C(F)(F)F)c(F)c2)NC(=O)CN(C)C(=O)[C@H](Cc2ccc(C(F)(F)F)cc2)N2CC/C=C\C[C@@H](C2=O)N(C)C(=O)CN(C)C1=O [PP1139] |  |  | A (a compound having 10 or more and less than 20 is denoted as A) | A (a compound having 10 or more and less than 20 is denoted as A) |
| 7.44 |  |  |  | 9.15 | CCOC[C@H]1C(=O)N[C@@H]([C@@H](C)CC)C(=O)N2CCC[C@H]2C(=O)N(C)[C@H]2C/C=C\CCN(C2=O)[C@@H](Cc2ccc(C)cc2)C(=O)N(C)CC(=O)N[C@@H](CCc2ccc(C(F)(F)F)c(OC)c2)C(=O)N2C[C@@H](C)C[C@H]2C(=O)NC2(CC(C)(C)C2)C(=O)N(C)[C@@H](C2CCCC2)C(=O)N(C)[C@H](C(=O)N(C)CC)CC(=O)N1C [PP2427] | A (a compound having 10 or more and less than 20 is denoted as A) | AA (a compound having 20 or more is denoted as AA) |  |  |
| 6.70 |  |  |  | 8.62 | CCC(CC)[C@H]1C(=O)N(C)[C@H](C(=O)N2CCCCC2)CC(=O)N(C)[C@@H](COC)C(=O)N[C@@H]([C@@H](C)CC)C(=O)N(C)CC(=O)N(C)[C@H]2C/C=C\CCN(C2=O)[C@@H](Cc2ccc(C(F)(F)F)cc2)C(=O)N(C)CC(=O)N[C@@H](CCc2ccc(Cl)c(Cl)c2)C(=O)N2C[C@H](OC(C)C)C[C@H]2C(=O)NC2(CC(C)(C)C2)C(=O)N1C [PP2612] | A (a compound having 10 or more and less than 20 is denoted as A) | AA (a compound having 20 or more is denoted as AA) |  |  |
|  |  | 7.12 | 9.77 |  | CC[C@H](C)[C@@H]1NC(=O)[C@H](CC)N(C)C(=O)C[C@@H](C(=O)N(C)C)N(C)C(=O)[C@H](C2CCCC2)N(C)C(=O)C2(CCC2)NC(=O)CN(CC)C(=O)[C@H](CCc2cc(F)c(C(F)(F)F)c(F)c2)NC(=O)CN(C)C(=O)[C@H](Cc2ccc(C(F)(F)F)cc2)N2CC/C=C\C[C@@H](C2=O)N(C)C(=O)CN(C)C1=O [PP1143] |  |  | A (a compound having 10 or more and less than 20 is denoted as A) | A (a compound having 10 or more and less than 20 is denoted as A) |
| 7.40 |  |  |  | 9.29 | CCOC[C@H]1C(=O)N[C@@H]([C@@H](C)CC)C(=O)N(C)CC(=O)N(C)[C@H]2C/C=C\CCN(C2=O)[C@@H](Cc2ccc(C)cc2)C(=O)N(C)CC(=O)N[C@@H](CCc2ccc(C(F)(F)F)c(Cl)c2)C(=O)N2C[C@@H](C)C[C@H]2C(=O)NC2(CC(C)(C)C2)C(=O)N(C)[C@@H](C2CCCC2)C(=O)N(C)[C@H](C(=O)N(CC)CC)CC(=O)N1C [PP2465] | A (a compound having 10 or more and less than 20 is denoted as A) | AA (a compound having 20 or more is denoted as AA) |  |  |
|  |  | 7.61 | 9.82 |  | CCO[C@@H]1C[C@H]2C(=O)NC3(CCC3)C(=O)N(C)[C@@H](C3CCCC3)C(=O)N(C)[C@H](C(=O)N3CCOCC3)CC(=O)N(C)[C@@H](CC(F)F)C(=O)N[C@@H]([C@@H](C)CC)C(=O)N(C)CC(=O)N(C)[C@H]3C/C=C\CCN(C3=O)[C@@H](Cc3ccc(C(F)(F)F)cc3)C(=O)N(C)CC(=O)N[C@@H](CCc3cc(F)c(C(F)(F)F)c(F)c3)C(=O)N2C1 [PP1285] |  |  | A (a compound having 10 or more and less than 20 is denoted as A) | AA (a compound having 20 or more is denoted as AA) |
| 6.71 |  |  |  | 8.39 | CCC[C@H]1C(=O)N[C@@H](CC(C)C)C(=O)N(C2CC2)CC(=O)N(C)[C@H]2C/C=C\CCN(C2=O)[C@@H](Cc2ccc(C)cc2)C(=O)N(C)CC(=O)N[C@@H](CCc2ccc(C(F)(F)F)c(OC)c2)C(=O)N2C[C@H](OCC)C[C@H]2C(=O)NC2(CCC2)C(=O)N(C)[C@@H](C2CCCC2)C(=O)N(C)[C@H](C(=O)N(C)C)CC(=O)N1C [PP2534] | B (a compound having 3 or more and less than 10 is denoted as B) | A (a compound having 10 or more and less than 20 is denoted as A) |  |  |
| 7.38 |  |  |  | 9.19 | CCOC[C@H]1C(=O)N[C@@H]([C@@H](C)CC)C(=O)N(C)CC(=O)N(C)[C@H]2C/C=C\CCN(C2=O)[C@@H](CC2CCCCC2)C(=O)N(C)CC(=O)N[C@@H](CCc2ccc(C(F)(F)F)c(OC)c2)C(=O)N2C[C@@H](C)C[C@H]2C(=O)N(C)C2(CCC2)C(=O)N(C)[C@@H](C2CCCC2)C(=O)N(C)[C@H](C(=O)N(C)C)CC(=O)N1C [PP2371] | B (a compound having 3 or more and less than 10 is denoted as B) | A (a compound having 10 or more and less than 20 is denoted as A) |  |  |
|  |  | 7.72 | 9.64 |  | CCO[C@@H]1C[C@H]2C(=O)NC3(CCC3)C(=O)N(C)[C@@H](C3CCCC3)C(=O)N(C)[C@H](C(=O)N(C)C)CC(=O)N(C)[C@@H](CC(C)C)C(=O)N[C@@H]([C@@H](C)CC)C(=O)N(C)CC(=O)N(C)[C@H]3C/C=C\CCN(C3=O)[C@@H](Cc3ccc(C(F)(F)F)cc3)C(=O)N(C)CC(=O)N[C@@H](CCc3cc(F)c(Cl)c(F)c3)C(=O)N2C1 [PP1263] |  |  | A (a compound having 10 or more and less than 20 is denoted as A) | A (a compound having 10 or more and less than 20 is denoted as A) |
| 6.89 |  |  |  | 8.55 | CCC[C@H]1C(=O)N[C@@H]([C@@H](C)CC)C(=O)N(C2CC2)CC(=O)N(C)[C@H]2C/C=C\CCN(C2=O)[C@@H](CC2CCC(F)(F)CC2)C(=O)N(C)CC(=O)N[C@@H](CCc2ccc(Cl)c(Cl)c2)C(=O)N2C[C@H](OC(C)C)C[C@H]2C(=O)NC2(CC(C)(C)C2)C(=O)N(C)[C@@H](C2CCCC2)C(=O)N(C)[C@H](C(=O)N(C)C)CC(=O)N1C [PP2521] | A (a compound having 10 or more and less than 20 is denoted as A) | A (a compound having 10 or more and less than 20 is denoted as A) |  |  |
